From patent publication US9000153B2, “Imidazo[4,5-c]quinolines as DNA-PK inhibitors” (Merck Patent GmbH, priority 2010, dated 2015)

Biological target: T1, DNA-PK (Homo sapiens (Human), UniProt P78527)
Test: DNA-PK/biochemical assay (FlashPlate kinase assay)
Conditions: 5 μM ATP, 90 min, room temperature
Method: The kinase assay was carried out in streptavidin-coated […] microtitre FlashPlates®. To this end, 1.5 μg of the DNA-PK/protein complex and 100 ng of biotinylated substrate, such as, for example, PESQEAFADLWKK biotin-NH2 (“biotin-DNA-PK peptide”), in a total volume of 36.5 μl (34.25 mM HEPES/KOH, 7.85 mM Tris-HCl, 68.5 mM KCl, 5 μM ATP, 6.85 mM MgCl2, 0.5 mM EDTA, 0.14 mM EGTA, 0.69 mM DTT, pH 7.4), were incubated at room temperature for 90 min with 500 ng of DNA from calf thymus, 0.1 μCi of 33P-ATP and 1.8% of DMSO per well with or without the test compound. The reaction was stopped using 50 μl/well of 200 mM EDTA. After incubation for a further 30 min at room temperature, the liquid was removed. Each well was washed three times with 100 μl of 0.9% sodium chloride solution. A non-specific reaction (blank value) was determined using 10 μM of a proprietary kinase inhibitor. The radioactivity measurement was carried out by means of a TopCount. IC50 values were calculated in RS1 (Kashishian et al. (2003) Molecular Cancer Therapeutics 1257).

Structure (SMILES) | IC50
COc1cc2ncc3c(c2cc1OC(C(N)=O)c1ccc(F)cc1)n(-c1ccc(C#N)cc1F)c(=O)n3C (stereo not drawn) [Compound 15, 2-[1-(4-Cyano-2-fluorophenyl)-7-methoxy-3-methyl-2-oxo-2,3-dihydro-1H-imidazo[4,5-c]-quinolin-8-yloxy]-2-(4-fluoro-phenyl)acetamide] | < 100 nM
COc1cc2ncc3c(c2cc1OCc1ccc(F)cc1)n(-c1ccc(C#N)cc1F)c(=O)n3C [Compound 17, 3-Fluoro-4-[8-(4-fluoro-benzyloxy)-7-methoxy-3-methyl-2-oxo-2,3-dihydro-imidazo[4,5-c]quinolin-1-yl]-benzonitrile] | < 100 nM
COc1cc2ncc3[nH]c(=O)n(-c4c(F)cc(C#N)cc4F)c3c2cc1OCc1ccccc1 [Compound 10, 4-(8-Benzyloxy-7-methoxy-2-oxo-2,3-dihydroimidazo-[4,5-c]quinolin-1-yl)-3,5-difluorobenzonitrile] | < 100 nM
COc1cc2ncc3c(c2cc1OCc1ccc(F)cc1Cl)n(-c1ccc(C#N)cc1F)c(=O)n3C [Compound 23, 4-[8-(2-Chloro-4-fluorobenzyloxy)-7-methoxy-3-methyl-2-oxo-2,3-dihydro-imidazo[4,5-c]quinolin-1-yl]-3-fluorobenzonitrile] | < 100 nM
COCCNC(=O)C(Oc1cc2c(cc1OC)ncc1c2n(-c2ccc(C#N)cc2F)c(=O)n1C)c1ccc(F)cc1 (stereo not drawn) [Compound 16, 2-[1-(4-Cyano-2-fluorophenyl)-7-methoxy-3-methyl-2-oxo-2,3-dihydro-1H-imidazo[4,5-c]-quinolin-8-yloxy]-2-(4-fluoro-phenyl)-N-(2-methoxyethyl)-acetamide] | 100 to 500 nM
COc1cc2ncc3c(c2cc1OCc1sccc1S(=O)(=O)N1CCOCC1)n(-c1ccc(C#N)cc1F)c(=O)n3C [Compound 19, 3-Fluoro-4-{7-methoxy-3-methyl-8-[3-(morpholine-4-sulfonyl)-thiophen-2-ylmethoxy]-2-oxo-2,3-dihydro-1H-imidazo[4,5-c]-quinolin-1-yl}benzonitrile] | 100 to 500 nM
COc1cc2ncc3c(c2cc1OC(CN)c1cccs1)n(-c1ccc(C#N)cc1F)c(=O)n3C (stereo not drawn) [Compound 31, 4-[8-(2-Amino-1-thiophen-2-ylethoxy)-7-methoxy-3-methyl-2-oxo-2,3-dihydroimidazo-[4,5-c]quinolin-1-yl]-3-fluorobenzonitrile] | 100 to 500 nM
COc1cc2ncc3c(c2cc1OC)n(-c1ccc(C#N)cc1)c(=O)n3C [Compound 2, 4-(7,8-Dimethoxy-3-methyl-2-oxo-2,3-dihydroimidazo-[4,5-c]quinolin-1-yl)-benzonitrile] | < 100 nM
COc1cc2ncc3c(c2cc1OCc1ccccc1)n(-c1ccc(C#N)cc1F)c(=O)n3C [Compound 9, 4-(8-Benzyloxy-7-methoxy-3-methyl-2-oxo-2,3-dihydro-imidazo[4,5-c]quinolin-1-yl)-3-fluorobenzonitrile] | < 100 nM
COc1cc2ncc3c(c2cc1CCc1ccsc1)n(-c1ccc(C#N)cc1F)c(=O)n3C [Compound 42, 3-Fluoro-4-[7-methoxy-3-methyl-2-oxo-8-(2-thiophen-3-ylethyl)-2,3-dihydroimidazo[4,5-c]-quinolin-1-yl]benzonitrile] | 100 to 500 nM
COc1cc2ncc3c(c2cc1OC(CN)c1ccc(F)cc1)n(-c1ccc(C#N)cc1F)c(=O)n3C (stereo not drawn) [Compound 32, 4-{8-[2-Amino-1-(4-fluorophenyl)ethoxy]-7-methoxy-3-methyl-2-oxo-2,3-dihydro-imidazo[4,5-c]quinolin-1-yl}-3-fluorobenzonitrile] | 500 to 1000 nM

Second part, the molecule after the results:

IC50 | Structure (SMILES)
< 100 nM | COc1cc2ncc3c(c2cc1O)n(-c1ccc(C#N)cc1)c(=O)n3C [Compound 3, 4-(8-Hydroxy-7-methoxy-3-methyl-2-oxo-2,3-dihydro-imidazo[4,5-c]quinolin-1-yl)-benzonitrile]
< 100 nM | COc1cc2ncc3c(c2cc1O)n(-c1c(F)cc(C#N)cc1F)c(=O)n3C [Compound 5, 3,5-Difluoro-4-(8-hydroxy-7-methoxy-3-methyl-2-oxo-2,3-dihydroimidazo[4,5-c]quinolin-1-yl)benzonitrile]
< 100 nM | COc1cc2ncc3c(c2cc1OCc1ccc(F)cc1)n(-c1c(F)cc(C#N)cc1F)c(=O)n3C [Compound 27, 3,5-Difluoro-4-[8-(4-fluoro-benzyloxy)-7-methoxy-3-methyl-2-oxo-2,3-dihydroimidazo-[4,5-c]quinolin-1-yl]benzonitrile]
< 100 nM | COc1cc2ncc3c(c2cc1OCc1ccc(F)cc1Br)n(-c1ccc(C#N)cc1F)c(=O)n3C [Compound 22, 4-[8-(2-Bromo-4-fluorobenzyloxy)-7-methoxy-3-methyl-2-oxo-2,3-clihydro-imidazo[4,5-c]quinolin-1-yl]-3-fluorobenzonitrile]
< 100 nM | COc1cc2ncc3c(c2cc1-c1cnn(C)c1)n(-c1ccc(C#N)cc1F)c(=O)n3C [Compound 36, 3-Fluoro-4-[7-methoxy-3-methyl-8-(1-methyl-1H-pyrazol-4-yl)-2-oxo-2,3-dihydroimidazo[4,5-c]-quinolin-1-yl]benzonitrile]
< 100 nM | COc1cc2ncc3c(c2cc1O)n(-c1ccc(C#N)cc1F)c(=O)n3C [Compound 4, 3-Fluoro-4-(8-hydroxy-7-methoxy-3-methyl-2-oxo-2,3-dihydroimidazo[4,5-c]quinolin-1-yl)benzonitrile]
< 100 nM | COc1ccc(-c2cc3c(cc2OC)ncc2c3n(-c3ccc(C#N)cc3F)c(=O)n2C)cn1 [Compound 34, 3-Fluoro-4-[7-methoxy-8-(6-methoxypyridin-3-yl)-3-methyl-2-oxo-2,3-dihydroimidazo[4,5-c]-quinolin-1-yl)benzonitrile]

Biological target: T1, DNA-PK
Test: not given
Conditions: cited from earlier work

Structure (SMILES) | IC50
O=c1cc(N2CCOCC2)oc2c(-c3cccc4c3sc3ccccc34)cccc12 [NU-7441] | 20 nM

Test system: mammal cells
Test: not given
Conditions: in cellular terms; cited from earlier work

Structure (SMILES) | increase in sensitivity to ionising irradiation
O=c1cc(N2CCOCC2)oc2c(-c3ccccc3)cccc12 [LY294002] | only a weak increase

Test system: kinases of the PI3K isoenzyme family
Test: not given
Conditions: cited from earlier work

Structure (SMILES) | inhibition of PI3K isoenzyme family kinases
CCN1CCN(CC(=O)Nc2ccc(-c3cccc4c(=O)cc(N5CCOCC5)oc34)c3sc4ccccc4c23)CC1 [KU-0060648] | potently inhibited
